{
  "source": "patent US9988626B2",
  "about": "“Neurocalcin delta inhibitors and therapeutic and non-therapeutic uses thereof” (Universität Zu Köln, priority 2013, dated 2018)",
  "assay_type_in_all_cases": "in vivo",
  "key": {"zebrafish embryos": {"tested_on": "zebrafish embryos", "assay": "Zebrafish motor axon phenotype (znp-1 staining) after morpholino or mRNA injection", "conditions": "34 hpf zebrafish, smn MO 4 ng, ncald MO 2 ng", "method": "Zebrafish were dechorionated and fixed in 4% PFA-PBS 34 hours after fertilization. Collagenase digest was performed to permeabilize the larvae for the following antibody staining. In brief, fish were stained at 4° C. over night in 500 μl PBS-T/10% FCS containing znp-1 antibody (1:300, Hybridoma Bank). After all-day washing in PBS-T/1% FCS/1% BSA (changing solution every hour) fish were stained in PBS-T/1% DMSO/10% FCS containing secondary donkey anti-mouse antibody labelled with Alexafluor 488 (1:200, Invitrogen). After repeated washing, fish were stored in 80% glycerol/20% PBS in the dark at 4° C. Microscopic analysis of fish was performed in 80% glycerol on micro slides using a fluorescence microscope (Axioskop 2, Zeiss). The length of each of the first ten motoraxons behind the yolk was analyzed and evaluated. For NSC34 cell staining cells were fixed in 4% PFA for 15 min at RT. Following fixation, cells were rinsed 1× in PBS for 5 min. After another washing step with PBS, cells were permeabilized in 0.2% Triton X in PBS for 5 min. […]\nThe used antisense Morpholino (MO) was designed against the translational start codon of the ncald gene (Gene Tools, LLC): 5′-[…]-3′ (SEQ ID NO: 2). […] Six hours after injection embryos were sorted according to homogeneity of the rhodamine fluorescence signal reflecting the equal distribution of the injected MO solution. […]"}, "zebrafish larvae [1]": {"tested_on": "zebrafish larvae", "assay": "High-speed tracking of zebrafish swimming velocity after electric stimulation", "conditions": "48 hpf zebrafish, n=30 per treatment", "method": "To analyse the swimming behaviour of zebrafish morphants, high-speed imaging was performed. In brief 30 zebrafish larvae, all treated with each respective morpholino, were placed in a 10 cm petri dish containing fish embryo medium. To trigger a swimming response, fish were stimulated with an electrical impulse (60 V; delay: 60 ms, duration: 4 ms, frequency: 6 pps (SD9 Stimulator)). Swimming behaviour was recorded with 120 frames per second using a high-speed camera (FC-100, Casio). Quality of the high-speed video was optimized for analysis (Adobe) and afterwards swimming velocity and distance was analysed using LoliTrack software (Loligo Systems)."}, "zebrafish larvae [2]": {"tested_on": "zebrafish larvae", "assay": "TEM analysis of synaptic cleft width of zebrafish NMJs", "method": "Whole zebrafish larvae were fixed in 4% PFA for 30 min and postfixed in 0.6% glutaraldehyde for 24 h. Larvae were embedded in Epoxy resin (Plano) and cross sections were performed according to previously described and adapted TEM protocol (Voigt et al. 2010). Thickness of semi-thin and ultra-thin sections was 0.5 μm and 0.1 μm, respectively. Image acquisition was performed as described in the supplement. Image acquisition was performed using the TEM CM10 (Philips) microscope with the Orius SC200W 1 Gatan camera and Digital Micrograph software.\n48 hpf zebrafish larvae were fixed in 4% PFA for 30 min and postfixed in 0.6% glutaraldehyde for another day. Gold-labeled secondary antibodies were used for co-localization studies of Ncald and Clathrin. Image acquisition of ultra-thin sections with a thickness of […] was performed using the TEM CM10 (Philips) microscope with the Orius SC200W 1 Gatan camera and the Digital Micrograph software.\n48 hpf zebrafish larvae were fixed in 4% PFA for […] and postfixed in 0.6% glutaraldehyde for another day. Samples were then prepared and embedded in resin as previously described. The thickness of semi-thin and ultra-thin sections was […], respectively. For immunogold stainings, in brie pre-stained sections were blocked and afterwards incubated with primary antibodies (anti-clathrin, 1:50, anti-NCALD, 1:50) and washed in PBS; after that sections were stained with gold-labelled secondary antibodies (donkey anti-mouse 6 nm gold, 1:100; goat anti-rabbit 20 nm gold 1:100; Abeam). Image acquisition was performed using the TEM CM10 (Philips) microscope with the Orius SC200W 1 Gatan camera and the Digital Micrograph software."}, "[3]": {"conditions": "MO-injected 48 hpf fish, N=3, n=5 (FIG. 17E)"}},
  "note": "Entries after “also recorded” stand apart in the source; their conditions may differ.",
  "data": [
    {"substance": "smn MO: previously published morpholino knocking down zebrafish smn, CGACATCTTCTGCACCATTGGC (all phosphorodiamidate morpholino (PMO))", "values": [
      {"measurement": "Motor axon phenotype (truncation, branching)", "setting": "zebrafish embryos", "value": "high numbers of severely truncated motor neuron axons; also recorded: massive motor axon-specific outgrowth defects"},
      {"measurement": "Swimming velocity after electrical stimulation", "setting": "zebrafish larvae [1]", "value": "significantly reduced velocity"},
      {"measurement": "Width of synaptic cleft / NMJ maturation", "setting": "zebrafish larvae [2]; Example 1, FIG. 8, 34 hpf zebrafish larvae", "value": "significant reduction of the width of the synaptic cleft"},
      {"measurement": "Width of synaptic cleft, mean", "setting": "zebrafish larvae [2]; [3]", "value": 30.26, "unit": "nm"},
      {"measurement": "Width of synaptic cleft, median", "setting": "zebrafish larvae [2]; [3]", "value": 23.51, "unit": "nm"}
    ]}
  ]
}
